Laboratory results: patent US5908862A, “Water-miscible esters of mono--and diglycerides having antibacterial activity and their use in inhibiting infection” (priority 1996, dated 1999)

Tested on: human respiratory syncytial virus (RSV) in LLC-MK2 cells
Assay: RSV inhibition assay in LLC-MK2 cells (immunoperoxidase), PBS
Type: cell-based
Settings: Carrageenan's IC50; Carrageenan alone
Protocol: Additional studies were performed to determine the synergistic anti-viral effects of diacetyltartaric acid esters of mono- and diglycerides, lipophilic monoglycerides (MG) and carrageenan. These studies were carried out using […] and PBS as the diluent. The RSV inhibition assay semi-quantitatively determines the ability of a test material (antibody or other bioactive compound) to inhibit the infection of monkey kidney cells (LLC-MK2) by human respiratory syncytial virus (RSV). Infected cells are identified using an immunoperoxidase method and counted. The method is performed in a microtiter format and is described briefly below:
LLC-MK2 rhesus monkey kidney cells were obtained from the American Type Culture Collection and were cultured in Eagles […] essential medium (EMEM) supplemented with 10% fetal bovine serum. […] Plates were then rinsed as above with PBS/CEA, and the number of stained RSV-infected cells (IC) per well determined using an inverted microscope. The number of ICs' in triplicate wells was compared with the number of ICs' of virus control wells (mean of 9)and the percent inhibition (PI) calculated; [PI=1.0-[Mean ICs' per well of test sample/Mean ICs' per well of virus control]. […]

With Carrageenan the “Enhancement Factor” value was 1.0.
